According to patent US10202390B2, “Heteroaryl substituted aminopyridine compounds” (BRISTOL-MYERS SQUIBB COMPANY, priority 2015, dated 2019):

Experiments:
IRAK4 = IRAK4 (Homo sapiens (Human), UniProt Q9NWZ3); experiment: IRAK4 Inhibition Assay; assay type: biochemical; conditions: ATP 500 μM; IRAK4 0.6 nM; 60 min room temperature
Method: The assays were performed in U-bottom 384-well plates. The final assay volume was 30 μL prepared from 15 μL additions of enzyme and substrates (fluoresceinated peptide and ATP) and test compounds in assay buffer (20 mM HEPES pH 7.2, 10 mM MgCl2, 0.015% Brij 35 and 4 mM DTT). The reaction was initiated by the combination of IRAK4 with substrates and test compounds. The reaction mixture was incubated at room temperature for 60 min. and terminated by adding 45 μL of 35 mM EDTA to each sample. The reaction mixture was analyzed on the Caliper LABCHIP® 3000 (Caliper, Hopkinton, Mass.) by electrophoretic separation of the fluorescent substrate and phosphorylated product. Inhibition data were calculated by comparison to no enzyme control reactions for 100% inhibition and vehicle-only reactions for 0% inhibition. The final concentrations of reagents in the assays are ATP, 500 μM; FL-IPTSPITTTYFFFKKK peptide 1.5 μM; IRAK4, 0.6 nM; and DMSO, 1.6%.

[1] = Caco-2 Permeability Assay; assay type: in vitro ADME; conditions: human, test compound 3 μM, 2 hours at 37° C., direction not given
Method: Caco-2 Permeability Assay Protocol
Thirteen to 27 days prior to assay, Caco-2 cells were seeded onto collagen-coated polycarbonate filter membranes in 24-well transwell plates at a density of 1.45×10^5 cells/cm^2, approximately 4.8×10^4 cells per well. The cells were grown in a culture medium consisting of DMEM supplemented with 10% fetal bovine serum, 10 mM HEPES, 1% nonessential amino acids, 2 mM L-glutamine, 100 U/mL penicillin-G, and 100 μg/mL streptomycin. The culture medium was replaced every 3 days and the cells were maintained at 37° C. in a 95% relative humidity and 5% CO2 atmosphere. The cells were evaluated for tight junction formation just prior to assay. The test compound was solubilized to 10 mM in 100% DMSO and diluted to 3 μM in assay buffer. Permeability studies were initiated by adding 200 μL assay buffer plus/minus compound to the apical transwell compartment and 600 μL assay buffer plus/minus compound to the basolateral compartment of the 24-well transwell low-binding cluster plate. For apical-to-basolateral (A to B) permeability (absorptive direction), buffer containing compound was placed in the apical compartment (donorwells), while buffer alone was placed in the corresponding basolateral compartments (receiverwells). For basolateral-to-apical (B to A) permeability (secretive direction), buffer containing compound was placed in the basolateral compartment (donor wells), while buffer alone was placed in the corresponding apical compartments (receiver wells). Transwells were then incubated for 2 hours at 37° C. in a 95% relative humidity and 5% CO2 atmosphere with gentle agitation. Following incubation, 100 μL was removed from each apical and basolateral compartment and transferred to 96-well low binding plates that had been previously loaded with 100 μL/well of acetonitrile containing 250 nM propranolol, 250 nM diclofenac, and 500 nM tolbutamide as internal standards. The samples were subsequently analyzed by LC-MS/MS to determine concentrations of compound.

Human whole blood = experiment: IRAK4 Whole Blood Assay (TLR2 agonist lipoteichoic acid induced IL-6); assay type: cell-based; conditions: 10 μg/mL lipoteichoic acid (TLR2 agonist), 5 hours, IL-6 levels
Method: Human whole blood containing the anti-coagulant ACD-A was plated in 384-well plate (25 μL/well) and incubated with compounds for 60 minutes at 37° C. in a 5% CO2 incubator. The blood was stimulated with a TLR2 agonist, 10 μg/mL final concentration of lipoteichoic acid (Invivogen, San Diego, Calif.) in 25 μL RPMI (Gibco) for 5 hours in a 5% CO2 incubator. At the end of the incubation, plates were centrifuged at 2300 rpm for 5 minutes. Supernatants were harvested and analyzed for IL-6 levels by Flow Cytometry beads assay (BD Biosciences, San Jose, Calif.).

Chain of IRAK4 (Q9NWZ3 whole entry): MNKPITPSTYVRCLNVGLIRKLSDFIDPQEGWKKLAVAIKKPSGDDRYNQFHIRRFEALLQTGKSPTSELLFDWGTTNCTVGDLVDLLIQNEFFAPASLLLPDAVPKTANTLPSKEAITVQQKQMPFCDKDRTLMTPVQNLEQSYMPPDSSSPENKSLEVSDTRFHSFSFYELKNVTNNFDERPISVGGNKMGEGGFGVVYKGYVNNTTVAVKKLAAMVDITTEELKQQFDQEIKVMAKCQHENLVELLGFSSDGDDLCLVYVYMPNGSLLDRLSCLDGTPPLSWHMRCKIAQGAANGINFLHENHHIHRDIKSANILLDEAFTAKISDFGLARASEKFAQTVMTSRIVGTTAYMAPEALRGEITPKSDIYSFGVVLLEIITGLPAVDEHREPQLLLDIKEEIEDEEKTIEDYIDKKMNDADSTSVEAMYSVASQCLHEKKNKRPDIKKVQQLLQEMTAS

| SMILES | IC50 (IRAK4) | Papp at 2 h, 3 μM [1] | EC50 (Human whole blood) |
| --- | --- | --- | --- |
| CCCc1cn(-c2cnc(-c3cnn4cc(C#N)cnc34)cc2NC(C)C)nn1 [Example 12, 3-(4-(isopropylamino)-5-(4-propyl-1H-1,2,3-triazol-1-yl)pyridin-2-yl)pyrazolo[1,5-a]pyrimidine-6-carbonitrile] | 9 nM | 34.7 ×10⁻⁶ cm/s | – |
| CC(C)Nc1cc(-c2cnc3cc(C#N)cnn23)ncc1-c1cnn(CCC(C)(C)O)c1 [Example 27, 3-(5-(1-(3-hydroxy-3-methylbutyl)-1H-pyrazol-4-yl)-4-(isopropylamino)pyridin-2-yl) imidazo[1,2-b]pyridazine-7-carbonitrile] | 3 nM | 13.6 ×10⁻⁶ cm/s | 620 nM |
| CC(C)Nc1cc(-c2cnn3cc(Cl)cnc23)ncc1-n1cc(CCC(C)(C)O)nn1 [Example 13, 4-(1-(6-(6-chloropyrazolo[1,5-a]pyrimidin-3-yl)-4-(isopropylamino)pyridin-3-yl)-H-1,2,3-triazol-4-yl)-2-methylbutan-2-ol] | 3 nM | – | 950 nM |
| CC(C)(O)CCc1cn(-c2cnc(-c3cnn4cc(C#N)cnc34)cc2N[C@H]2CC[C@H](F)C2)nn1 [Example 25, 3-(4-(((1S,3 S)-3-fluorocyclopentyl)amino)-5-(4-(3-hydroxy-3-methylbutyl)-1H-1,2,3-triazol-1-yl)pyridin-2-yl)pyrazolo[1,5-a]pyrimidine-6-carbonitrile] | 5 nM | 13.4 ×10⁻⁶ cm/s | 250 nM |
| CCCn1cc(-c2cnc(-c3cnc4cc(C#N)cnn34)cc2NC(C)C)cn1 [Example 6, 3-(4-(isopropylamino)-5-(1-propyl-1H-pyrazol-4-yl)pyridin-2-yl)imidazo[1,2-b]pyridazine-7-carbonitrile] | 18 nM | – | 4410 nM |
| CCCc1cn(-c2cnc(-c3cnc4cc(C#N)cnn34)cc2NC(C)C)nn1 [Example 15, 3-(4-(isopropylamino)-5-(4-propyl-1H-1,2,3-triazol-1-yl)pyridin-2-yl)imidazo[1,2-b]pyridazine-7-carbonitrile] | 6 nM | 22.5 ×10⁻⁶ cm/s | 1780 nM |
| CC(C)Nc1cc(-c2cnc3cc(C#N)cnn23)ncc1-c1cc(C2CCOCC2)[nH]n1 [Example 28, 3-(4-(isopropylamino)-5-(5-(tetrahydro-2H-pyran-4-yl)-1H-pyrazol-3-yl)pyridin-2-yl)imidazo[1,2-b]pyridazine-7-carbonitrile] | 5 nM | – | 590 nM |
| CC(C)Nc1cc(-c2cnc3cc(C#N)cnn23)ncc1-c1cnn(C2CCOCC2)c1 [Example 3, 3-(4-(isopropylamino)-5-(1-(tetrahydro-2H-pyran-4-yl)-1H-pyrazol-4-yl)pyridin-2-yl)imidazo[1,2-b]pyridazine-7-carbonitrile] | 14 nM | – | 1030 nM |
| CC(C)Nc1cc(-c2cnc3cc(C#N)cnn23)ncc1-n1cc(CCC(C)(C)O)nn1 [Example 22, 3-(5-(4-(3-hydroxy-3-methylbutyl)-1H-1,2,3-triazol-1-yl)-4-(isopropylamino)pyridin-2-yl)imidazo[1,2-b]pyridazine-7-carbonitrile] | 4 nM | 29.5 ×10⁻⁶ cm/s | 780 nM |
| CCCn1cc(-c2cnc(-c3cnc4cc(C#N)cnn34)cc2NC2CC2)nn1 [Example 18, 3-(4-(cyclopropylamino)-5-(1-propyl-1H-1,2,3-triazol-4-yl)pyridin-2-yl)imidazo[1,2-b]pyridazine-7-carbonitrile] | 2 nM | 22.5 ×10⁻⁶ cm/s | 180 nM |
| CCCn1cc(-c2cnc(-c3cnc4cc(Cl)cnn34)cc2NC2CC2)nn1 [Example 19, 2-(7-chloroimidazo[1,2-b]pyridazin-3-yl)-N-cyclopropyl-5-(1-propyl-1H-1,2,3-triazol-4-yl)pyridin-4-amine] | 3 nM | – | 2320 nM |
| CC(C)(O)CCc1cc(-c2cnc(-c3cnn4cc(C#N)cnc34)cc2NC2CCOCC2)n[nH]1 [Example 29, 3-(5-(5-(3-hydroxy-3-methylbutyl)-1H-pyrazol-3-yl)-4-((tetrahydro-2H-pyran-4-yl)amino)pyridin-2-yl)pyrazolo[1,5-a]pyrimidine-6-carbonitrile] | 2 nM | – | 510 nM |
| CCCc1cn(-c2cnc(-c3cnn4cc(Cl)cnc34)cc2NC(C)C)nn1 [Example 11, 2-(6-chloropyrazolo[1,5-a]pyrimidin-3-yl)-N-isopropyl-5-(4-propyl-1H-1,2,3-triazol-1-yl)pyridin-4-amine] | 8 nM | 17.9 ×10⁻⁶ cm/s | – |
| CC(C)(O)CCc1cn(-c2cnc(-c3cnn4cc(Cl)cnc34)cc2NC2CCOCC2)nn1 [Example 23, 4-(1-(6-(6-chloropyrazolo[1,5-a]pyrimidin-3-yl)-4-((tetrahydro-2H-pyran-4-yl)amino)pyridin-3-yl)-1H-1,2,3-triazol-4-yl)-2-methylbutan-2-ol] | 9 nM | – | 990 nM |
| COC(=O)N1CCC(n2cc(-c3cnc(-c4cnc5cc(Cl)cnn45)cc3NC3CC3)nn2)[C@](C)(O)C1 (stereo partly drawn) [Example 21, (3R)-methyl 4-(4-(6-(7-chloroimidazo[1,2-b]pyridazin-3-yl)-4-(cyclopropylamino)pyridin-3-yl)-1H-1,2,3-triazol-1-yl)-3-hydroxy-3-methylpiperidine-1-carboxylate] | 14 nM | – | 2870 nM |
